The results in this text go back to patent US20100130477A1, “Spirocyclobutyl Piperidine Derivatives” (ASTRAZENECA AB, priority 2008, published 2010).

As usually defined, the IC50 is the concentration at which inhibition is half-maximal. A high value points to weaker potency.

This experiment deals with T1, human Histamine H3 receptor (hH3R) (Homo sapiens, UniProt Q9Y5N1).
T1 construct: expressed in transfected cells; host or cells: CHO cells (Chinese Hamster Ovary); membranes
T1 sequence (Q9Y5N1 whole entry): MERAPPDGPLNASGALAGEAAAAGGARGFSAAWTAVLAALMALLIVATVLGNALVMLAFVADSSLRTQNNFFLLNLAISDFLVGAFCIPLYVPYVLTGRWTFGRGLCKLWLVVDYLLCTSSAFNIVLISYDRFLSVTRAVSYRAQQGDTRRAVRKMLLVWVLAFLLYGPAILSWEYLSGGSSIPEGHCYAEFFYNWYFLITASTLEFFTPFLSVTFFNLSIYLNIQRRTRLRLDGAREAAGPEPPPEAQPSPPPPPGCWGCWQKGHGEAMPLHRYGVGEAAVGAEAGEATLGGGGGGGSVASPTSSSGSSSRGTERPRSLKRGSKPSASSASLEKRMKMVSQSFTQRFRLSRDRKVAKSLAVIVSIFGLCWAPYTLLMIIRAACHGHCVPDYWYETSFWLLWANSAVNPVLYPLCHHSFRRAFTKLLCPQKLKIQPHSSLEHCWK
As to the kind of experiment: GTPγS Binding Assay (antagonist activity, [35S]GTPγS, (R)-α-methyl histamine 30 nM). In kind it is biochemical. The settings on record: membranes from CHO cells expressing hH3R, 90 minutes at room temperature. Here is the method: Guanosine 5′-O-(3-[^35S]thio)triphosphate [GTPγS] Binding Assay
A GTPγS binding assay can be used to investigate antagonist properties of compounds in CHO cells (Chinese Hamster Ovary) transfected with human Histamine H3 receptor (hH3R). Membranes from CHO cells expressing hH3R (10 μg/well) are diluted in GTPγS assay buffer (20 mM Hepes, 10 mM MgCl2, 100 mM NaCl, pH 7.4) and preincubated with saponine (3 μg/ml), GDP (10 μM) and PVT-WGA SPA beads (125 μg/well) (Amersham) for 30 minutes. To determine antagonist activity, (R)-α-methyl histamine (30 nM) is added in 96 well SPA plate with [^35S]GTPγS (0.2 nM) and various concentration of H3R antagonists. The GTPγS binding assay is started with addition of the mixture membrane/saponine/GDP and incubated for 90 minutes at room temperature. The amount of bound [^35S]GTPγS is determined by using the MicroBeta Trilux counter (PerkinElmer). The percentage of [^35S]GTPγS bound in each sample is calculated as a percentage of that bound control sample incubated in absence of H3 antagonist. Duplicate determinations are obtained for each concentration, and the data are analyzed using ExcelFit4 to obtain the IC50.
Background: Binding of GTPγS marks nucleotide exchange on a G protein.
Take `CC(C)N1CCN(C(=O)C2CC3(CCN(C(=O)c4cccnc4)CC3)C2)CC1` [Example 36, (4-isopropylpiperazin-1-yl)(7-nicotinoyl-7-azaspiro[3.5]nonan-2-yl)methanone]: the IC50 is 67.4 nM.

On to `CC(C)N1CCN(C(=O)C2CC3(CCN(C(=O)N(C)C)CC3)C2)CC1` [Example 37, 2-(4-isopropylpiperazine-1-carbonyl)-N,N-dimethyl-7-azaspiro[3.5]nonane-7-carboxamide], for which the IC50 came out at 114 nM.

`O=C(C1CC2(CCN(S(=O)(=O)c3ccc(F)cc3)CC2)C1)N1CCCN(C2CCC2)CC1` [Example 38, (4-cyclobutyl-1,4-diazepan-1-yl)(7-(4-fluorophenylsulfonyl)-7-azaspiro[3.5]nonan-2-yl)methanone] registered an IC50 of 8.9 nM.

As to `O=C(C1CC2(CCN(S(=O)(=O)c3cccc(F)c3)CC2)C1)N1CCCN(C2CCC2)CC1` [Example 39, (4-cyclobutyl-1,4-diazepan-1-yl)(7-(3-fluorophenylsulfonyl)-7-azaspiro[3.5]nonan-2-yl)methanone], the 50% inhibitory concentration (IC50) came out at 9.97 nM.

The compound `O=C(C1CC2(CCN(S(=O)(=O)c3ccccc3F)CC2)C1)N1CCCN(C2CCC2)CC1` [Example 40, (4-cyclobutyl-1,4-diazepan-1-yl)(7-(2-fluorophenylsulfonyl)-7-azaspiro[3.5]nonan-2-yl)methanone] showed a half-inhibitory concentration (IC50) of 6.22 nM.

Turning to `O=C(C1CC2(CCN(S(=O)(=O)c3ccccc3)CC2)C1)N1CCCN(C2CCC2)CC1` [Example 41, (4-cyclobutyl-1,4-diazepan-1-yl)(7-(phenylsulfonyl)-7-azaspiro[3.5]nonan-2-yl)methanone], the IC50 was determined as 8.71 nM.

In turn, `O=C(c1ccccn1)N1CCC2(CC1)CC(C(=O)N1CCCN(C3CCC3)CC1)C2` [Example 42, (4-cyclobutyl-1,4-diazepan-1-yl)(7-picolinoyl-7-azaspiro[3.5]nonan-2-yl)methanone] returned an IC50 of 15 nM.

The compound `Cc1cc(C(=O)N2CCC3(CC2)CC(C(=O)N2CCCN(C4CCC4)CC2)C3)ccn1` [Example 43, (4-cyclobutyl-1,4-diazepan-1-yl)(7-(2-methylisonicotinoyl)-7-azaspiro[3.5]nonan-2-yl)methanone] came in with an IC50 of 8.87 nM.

With `Cc1cnccc1C(=O)N1CCC2(CC1)CC(C(=O)N1CCCN(C3CCC3)CC1)C2` [Example 44, (4-cyclobutyl-1,4-diazepan-1-yl)(7-(3-methylisonicotinoyl)-7-azaspiro[3.5]nonan-2-yl)methanone], the 50% inhibitory concentration (IC50) came to 8.45 nM.

`O=C(c1ccncc1)N1CCC2(CC1)CC(C(=O)N1CCCN(C3CCC3)CC1)C2` [Example 45, (4-cyclobutyl-1,4-diazepan-1-yl)(7-isonicotinoyl-7-azaspiro[3.5]nonan-2-yl)methanone]: the IC50 was 7.61 nM.

The compound `Cc1cncc(C(=O)N2CCC3(CC2)CC(C(=O)N2CCCN(C4CCC4)CC2)C3)c1` [Example 46, (4-cyclobutyl-1,4-diazepan-1-yl)(7-(5-methylnicotinoyl)-7-azaspiro[3.5]nonan-2-yl)methanone] displayed an IC50 of 5.75 nM.

Compound `O=C(c1cccnc1)N1CCC2(CC1)CC(C(=O)N1CCCN(C3CCC3)CC1)C2` [Example 47, (4-cyclobutyl-1,4-diazepan-1-yl)(7-nicotinoyl-7-azaspiro[3.5]nonan-2-yl)methanone] came in with an IC50 of 8.27 nM.

With `O=C(c1ccccc1)N1CCC2(CC1)CC(C(=O)N1CCCN(C3CCC3)CC1)C2` [Example 48, (7-benzoyl-7-azaspiro[3.5]nonan-2-yl)(4-cyclobutyl-1,4-diazepan-1-yl)methanone], the half-maximal inhibitory concentration (IC50) stood at 12.7 nM.

`N#Cc1ccc(C(=O)N2CCC3(CC2)CC(C(=O)N2CCCN(C4CCC4)CC2)C3)cc1` [Example 49, 4-(2-(4-cyclobutyl-1,4-diazepane-1-carbonyl)-7-azaspiro[3.5]nonane-7-carbonyl)benzonitrile] returned an IC50 of 5.28 nM.

The compound `N#Cc1cccc(C(=O)N2CCC3(CC2)CC(C(=O)N2CCCN(C4CCC4)CC2)C3)c1` [Example 50, 3-(2-(4-cyclobutyl-1,4-diazepane-1-carbonyl)-7-azaspiro[3.5]nonane-7-carbonyl)benzonitrile] registered an IC50 of 7.62 nM.

In turn, `N#Cc1ccccc1C(=O)N1CCC2(CC1)CC(C(=O)N1CCCN(C3CCC3)CC1)C2` [Example 51, 2-(2-(4-cyclobutyl-1,4-diazepane-1-carbonyl)-7-azaspiro[3.5]nonane-7-carbonyl)benzonitrile] gave a half-maximal inhibitory concentration (IC50) of 5.02 nM.

In the case of `CC(C)N1CCCN(C(=O)C2CC3(CCN(S(C)(=O)=O)CC3)C2)CC1` [Example 52, (4-isopropyl-1,4-diazepan-1-yl)(7-(methylsulfonyl)-7-azaspiro[3.5]nonan-2-yl)methanone], the IC50 was determined as 56.4 nM.

In the case of `Cc1cc(C(=O)N2CCC3(CC2)CC(C(=O)N2CCCN(C(C)C)CC2)C3)ccn1` [Example 53, (4-isopropyl-1,4-diazepan-1-yl)(7-(2-methylisonicotinoyl)-7-azaspiro[3.5]nonan-2-yl)methanone], the IC50 was determined as 160 nM.

`CC(C)N1CCCN(C(=O)C2CC3(CCN(C(=O)c4ccncc4)CC3)C2)CC1` [Example 54, (7-isonicotinoyl-7-azaspiro[3.5]nonan-2-yl)(4-isopropyl-1,4-diazepan-1-yl)methanone]: the IC50 was found to be 161 nM.

`CC(C)N1CCCN(C(=O)C2CC3(CCN(C(=O)c4cccnc4)CC3)C2)CC1` [Example 55, (4-isopropyl-1,4-diazepan-1-yl)(7-nicotinoyl-7-azaspiro[3.5]nonan-2-yl)methanone] gave a half-inhibitory concentration (IC50) of 115 nM.

In turn, `CC(C)N1CCCN(C(=O)C2CC3(CCN(C(=O)N(C)C)CC3)C2)CC1` [Example 56, 2-(4-isopropyl-1,4-diazepane-1-carbonyl)-N,N-dimethyl-7-azaspiro[3.5]nonane-7-carboxamide] yielded a half-maximal inhibitory concentration (IC50) of 269 nM.

Compound `Cc1cc(C(=O)N2CCC3(CC2)CC(C(=O)N2CCN(C4CCC4)CC(C)(C)C2)C3)ccn1` [Example 57, (4-cyclobutyl-6,6-dimethyl-1,4-diazepan-1-yl)(7-(2-methylisonicotinoyl)-7-azaspiro[3.5]nonan-2-yl)methanone] displayed an IC50 of 707 nM.

`CS(=O)(=O)N1CCC2(CC1)CC(C(=O)N1CCN(C3CCCC3)CC1)C2` [Example 58, (4-cyclopentylpiperazin-1-yl)(7-(methylsulfonyl)-7-azaspiro[3.5]nonan-2-yl)methanone] returned a half-maximal inhibitory concentration (IC50) of 63 nM.

Compound `C[C@H]1CN(C(=O)C2CC3(CCN(S(C)(=O)=O)CC3)C2)CCN1C1CCC1` [Example 59, ((S)-4-cyclobutyl-3-methylpiperazin-1-yl)(7-(methylsulfonyl)-7-azaspiro[3.5]nonan-2-yl)methanone] had an IC50 of 368 nM.

In turn, `CC(C)N1CCN(C(=O)C2CC3(CCN(S(C)(=O)=O)CC3)C2)C[C@H]1C` [Example 60, ((R)-4-isopropyl-3-methylpiperazin-1-yl)(7-(methylsulfonyl)-7-azaspiro[3.5]nonan-2-yl)methanone] registered an IC50 of 177 nM.

`CC(C)N1CCN(C(=O)C2CC3(CCN(S(C)(=O)=O)CC3)C2)C[C@@H]1C` [Example 61, ((S)-4-isopropyl-3-methylpiperazin-1-yl)(7-(methylsulfonyl)-7-azaspiro[3.5]nonan-2-yl)methanone]: the IC50 was determined as 179 nM.

`C[C@@H]1CN(C2CCC2)CCN1C(=O)C1CC2(CCN(S(C)(=O)=O)CC2)C1` [Example 62, ((R)-4-cyclobutyl-2-methylpiperazin-1-yl)(7-(methylsulfonyl)-7-azaspiro[3.5]nonan-2-yl)methanone] registered an IC50 of 4.25 nM.

Compound `C[C@H]1CN(C2CCC2)CCN1C(=O)C1CC2(CCN(S(C)(=O)=O)CC2)C1` [Example 63, ((S)-4-cyclobutyl-2-methylpiperazin-1-yl)(7-(methylsulfonyl)-7-azaspiro[3.5]nonan-2-yl)methanone] came in with an IC50 of 21.2 nM.

In turn, `N#Cc1cnccc1C(=O)N1CCC2(CC1)CC(C(=O)N1CCN(C3CCC3)CC1)C2` [Example 64, 4-(2-(4-cyclobutylpiperazine-1-carbonyl)-7-azaspiro[3.5]nonane-7-carbonyl)nicotinonitrile] registered an IC50 of 16.8 nM.

`O=C(C1CC2(CCN(c3cnccn3)CC2)C1)N1CCN(C2CCC2)CC1` [Example 65, (4-cyclobutylpiperazin-1-yl)(7-(pyrazin-2-yl)-7-azaspiro[3.5]nonan-2-yl)methanone]: the 50% inhibitory concentration (IC50) stood at 51.7 nM.

As for `O=C(C1CC2(CCN(c3ccncc3)CC2)C1)N1CCN(C2CCC2)CC1` [Example 66, (4-cyclobutylpiperazin-1-yl)(7-(pyridin-4-yl)-7-azaspiro[3.5]nonan-2-yl)methanone], the IC50 is 10.1 nM.

The compound `O=C(C1CC2(CCN(c3cncnc3)CC2)C1)N1CCN(C2CCC2)CC1` [Example 67, (4-cyclobutylpiperazin-1-yl)(7-(pyrimidin-5-yl)-7-azaspiro[3.5]nonan-2-yl)methanone] returned an IC50 of 22.9 nM.
